Patent US8304418B2, “Pyrazolopyrimidinone kinase inhibitor” (Agennix AG, priority 2007, dated 2012)
Values joined by “and” are separate entries in the source; they are usually repeats but may differ in a detail not shown here. Identical values can stand only once. Like-named read-outs stand apart in the source and are kept apart here.

What was measured:
CDK6 = CDK6 (Homo sapiens, UniProt Q00534); experiment: Biochemical CDK6 inhibition assay
Protocol: The assays used for determining the properties of the kinase inhibitors were performed in accordance with standard procedures well known to those skilled in the art. For example, assays for determining inhibitory activity on CDKs or in cellular assays are described in WO 00/218962, WO 2005/026129, and WO 2005/063765. Solubility assays at pH 7.4 were essentially performed as described by Avdeef, A. in Pharmacokinetic Optimization in Drug Research; Testa, B.; van de Waterbeemd, H.; Folkers, G.; Guy, R. Eds.; Wiley-VHC: Zurich, 2001; pp 305-326. PAMPA permeability assays at pH 7.4 were essentially performed as described in Kansy et al., J. Med. Chem. 41: 1007-10, 1998.

[1] = tested on: CDK9-specific phosphorylation of RNA polymerase II (RNAPII) on serine 2; experiment: In-cell RNAPII phosphorylation (immunoblot); format: cell-based, human; conditions: 3 h
Protocol: (§1) The following cancer cell lines were investigated in the course of these studies: A2780 (ovarian), HCT116 (colon), RPMI8226 (myeloma), SKMel28 (melanoma), Colo205 (colorectal), MDA-MB-435 (melanoma), MDA-MB-453 (breast, carcinoma), MDA-MB-468 (breast, adenocarcinoma), A549 (lung), Raji (lymphoma, Burkitt). Cell lines were obtained from public repositories.
CDK9-specific phosphorylation of RNA polymerase II (RNAPII) on Serine 2 (Ser2). Asynchronous cells were treated with an appropriate concentration of test compound or DMSO as a control. After 3 h incubation (37° C./5% CO2) cells were lysed with CLB-1 lysis buffer (Zeptosense, Switzerland), the lysate was cleared by centrifugation (10 min, 13000 rpm, RT) and subjected to SDS-PAGE. Total protein was blotted on PVDF membranes and analyzed using antibodies against S2-phosphorylated RNAPII (H5; Covance) or total RNAPII (N-20; Santa Cruz) as an expression control. Visualization was conducted using secondary Alexa680- or IR800-coupled antibodies (Molecular Probes) against mouse or rabbit Fc tails on the Odyssey-system (Licor). Specific bands were quantified and IC50 values of inhibition of RNAPII phosphorylation were estimated.

[2] = tested on: CDK1-dependent Eg-5 phosphorylation on threonine 927; experiment: In-cell Eg-5 phosphorylation (immunoblot); format: cell-based, human; conditions: 1 h
Text: (§2) This set of assays represents CDKs involved in cell cycle progression (CDK1, 4/6), and the “regulatory CDK” (CDK9) which is involved in transcriptional regulation.
as §1
CDK1-dependent Eg-5 phosphorylation on threonine 927 (Thr927phos). Thr927phos was investigated by arresting cells over night in G2/M phase with 25 ng/ml nocodazole (optimized final concentration) followed by treatment with DMSO as control or an appropriate concentration of test compound for 1 hour. Detached as well as adherent cells were collected and lysed with CLB-1 lysis buffer. the lysate cleared by centrifugation and subjected to SDS-PAGE. The proteins were blotted on PVDF membranes and subsequently analyzed by antibodies against total Eg-5 (Becton Dickinson) and Eg-5 Thr927phos (Bio legend). Visualization and estimation of IC50 was conducted as above.

[3] = tested on: CDK4/6-specific phosphorylation of Rb on serine 780; experiment: In-cell Rb phosphorylation (immunoblot); format: cell-based, human; conditions: 1 h, read-out: IC50 (uM) - Rb-5 phosphorylation
Text: as §2, §1
CDK4/6-specific phosphorylation of Rb on serine 780 (Ser780phos). Asynchronous growing cells were treated with an appropriate concentration of test compound or DMSO for 1 hour. Proteins were extracted using the AllPrep RNA/Protein kit according to the manufacturer's recommendations (Qiagen, Germany). Rb was immunoprecipitated over night using Ab05 antibody (Oncogene Inc.). Proteins were separated by SDS-PAGE, blotted to PVDF membranes and analyzed with antibodies against total (sc-102; Santa Cruz) or Ser780-phosphorylated Rb proteins (Cell Signalling). Visualization and quantification was performed as above.

[4] = tested on: human A2780 ovarian tumor cells
Protocol: (§3) Xenograft Tumor-Models: 100 athymic nu/nu female mice (6-8 weeks old) from CRL were allowed to acclimate for 4 days. […] The 3rd passage of cells with approximate 90% confluence was used for these experiments. Briefly, on Day 0, mice were inoculated with 0.1 ml (total 5×10^6 cells) of the respective cell-type as a cell suspension (50×10^6 cells/ml) by subcutaneous injection into the fat pad area near the mammary gland under light anesthesia. When the average tumor weight in all mice reached over 100 mg (day 10), 80 animals with an average tumor size of 130 mg were selected and were randomly divided into 8 groups.
(§4) A 20 G gavage needle was used for the oral treatment.
(§5) Tumor growth and body weight were monitored and recorded three times a week. Tumors were measured by determining the length and width of the tumor with a digital caliper. Tumor weight was estimated using the following formula: Tumor Weight (mg)=(w^2×1)×0.52 where w=width and l=length in mm of the tumor.
(§6) Experimental treatment may cause partial regression (PR) or complete regression (CR) of tumors. PR is defined when the tumor size is 50% or less than the starting (day 1) size but greater than 0.0 mg for three consecutive measurements during the course of the study. CR occurs when there is no measurable tumor mass for three consecutive measurements. Cures are defined when CR are maintained until the completion of the experiment.
(§7) Mice were sacrificed when their tumors reached the 1000 mm^3 endpoint volume. Treatment efficacy was determined as Log Cell Kill (LCK).
(§8) Toxic deaths are defined as deaths caused by compound treatment and not by advanced disease state. […] Non-tumor related deaths after this point are recorded, but not considered toxic deaths.
(§9) Briefly, the empirical distributions of T and Td were derived from B=1000 realisations of random selection of n individual animals with replacement from the set i=1, . . . , n of the appropriate group of mice containing n evaluable animals, estimating the mean tumor size for such selection of animals for each time-point, and linear regression analysis from a semi-log plot of such averages against time. Dead mice and mice with no measurable tumor size were treated as missing data and were ignored when calculating the average.

H460 NSCLC = conditions: H460, 40 mg/kg po q2dx5
Protocol: as §3, §4, §5, §6, §7, §8, §9

[5] = tested on: HCT116 colon carcinoma cells; conditions: HCT116, 100 mg/kg po qdx10 (R547 suspension)
Protocol: as §3, §4, §5, §6, §7, §8, §9

Sequence of CDK6 (Q00534 whole entry): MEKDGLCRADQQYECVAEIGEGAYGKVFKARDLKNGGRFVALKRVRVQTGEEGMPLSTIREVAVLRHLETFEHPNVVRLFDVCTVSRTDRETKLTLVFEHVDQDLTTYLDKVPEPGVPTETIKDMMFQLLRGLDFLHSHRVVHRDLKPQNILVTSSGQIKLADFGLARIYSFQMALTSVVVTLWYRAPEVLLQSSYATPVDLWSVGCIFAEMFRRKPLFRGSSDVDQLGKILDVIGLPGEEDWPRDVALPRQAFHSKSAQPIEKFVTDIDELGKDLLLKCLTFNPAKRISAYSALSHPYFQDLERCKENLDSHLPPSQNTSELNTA
Sequence of CDK6 (P30281 whole entry partner): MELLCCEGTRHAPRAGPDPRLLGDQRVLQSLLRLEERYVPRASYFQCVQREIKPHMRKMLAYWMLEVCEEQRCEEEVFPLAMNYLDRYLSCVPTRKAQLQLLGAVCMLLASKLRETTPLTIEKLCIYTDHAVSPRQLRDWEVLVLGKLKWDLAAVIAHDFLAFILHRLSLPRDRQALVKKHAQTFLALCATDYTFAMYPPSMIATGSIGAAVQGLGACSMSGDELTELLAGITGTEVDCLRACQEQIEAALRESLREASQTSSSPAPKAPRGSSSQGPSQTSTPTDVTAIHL

Compound: COc1ccc(F)c(F)c1C(=O)c1cnc(NC2CCN(S(C)(=O)=O)CC2)nc1N [Compound R547]
- IC50 (CDK6): ~10 nM
- IC50 ([1]; A2780 cells): ~1 µM
- IC50 ([1]; Colo205 cells): ~0.5 µM
- IC50 ([1]; HCT116 cells): ~0.3 µM
- IC50 ([1]; MDA-MB-468 cells): ~0.3 µM
- IC50 ([1]; RPMI8226 cells): ~0.5 µM
- IC50 ([1]; Sk-mel-28 cells): ~0.3 µM
- IC50 ([2]; A549 cells): ~0.03 µM
- IC50 ([2]; A2780 cells): ~0.01 µM
- IC50 ([2]; Colo205 cells): ~0.05 µM
- IC50 ([2]; HCT116 cells): ~0.1 µM
- IC50 ([2]; MDA-MB-435 cells): ~0.1 µM
- IC50 ([2]; MDA-MB-453 cells): ~0.1 µM
- IC50 ([2]; RPMI8226 cells): ~0.05 µM
- IC50 ([2]; Raji cells): ~0.1 µM
- IC50 ([3]; A2780 cells): ~0.1 µM
- IC50 ([3]; Colo205 cells): ~0.1 µM
- IC50 ([3]; HCT116 cells): ~0.1 µM
- IC50 ([3]; MDA-MB-435 cells): ~0.3 µM
- IC50 ([3]; RPMI8226 cells): ~0.3 µM
- IC50 ([3]; Sk-mel-28 cells): ~0.1 µM
- LCK ± CI (95%) (Td: 1.7 d) ([4]; 100 mg/kg po qdx1): 1.05 ± 0.56
- Max % BW Loss (d) ([4]; 100 mg/kg po qdx1 (planned qdx10), day 9): 7.5 (9) %
- Max % TGI (d) ([4]; 100 mg/kg po qdx1, day 11): 68.5 (11) %
- LCK ± CI (95%) (Td: 2.6 d) (H460 NSCLC): 0.48 ± 0.20 and 0.48
- Max % BW Loss (d) (H460 NSCLC; day 8): 1.3 (8) %
- Max % TGI (d) (H460 NSCLC; day 13): 47.5 (13) %
- LCK ± CI (95%) (Td: 6.8 d) [5]: 0.70 ± 0.28
- Max % BW Loss (d) ([5]; day 12): 14.5 (12) %
- Max % TGI (d) ([5]; day 16): 72.8 (16) %
